Assay results published in patent US20100130432A1, “Non-Natural Amino Acids and Neurotensin Analogues Thereof” (priority 2005, published 2010).
Structures can show the parent of a compound that is named as a salt. Marks after values point to notes of the source that are not given here. Non-standard residues stand in square brackets, D forms with d. Residues, ends and D or L forms follow the SMILES beside them. No end group written: not given here. *: point of attachment. X5 = [N-]=[N+]=N[C@@H](CCCCCN)C(=O)*; X2 = C[C@@H](CCC[N+](C)(C)C)C(=O)*; Tle = CC(C)(C)[C@H](N)C(=O)O; hLys = NCCCCC[C@H](N)C(=O)O; X1 = C[C@@H](CCCCCN)C(=O)*; Orn = NCCC[C@H](N)C(=O)O

Assays:
NTR-2 = NTR-2 (Homo sapiens, UniProt O95665); experiment: Competitive NTR binding versus radiolabeled NT[8-13]
NTR-2, sequence (O95665 whole entry, species assumed): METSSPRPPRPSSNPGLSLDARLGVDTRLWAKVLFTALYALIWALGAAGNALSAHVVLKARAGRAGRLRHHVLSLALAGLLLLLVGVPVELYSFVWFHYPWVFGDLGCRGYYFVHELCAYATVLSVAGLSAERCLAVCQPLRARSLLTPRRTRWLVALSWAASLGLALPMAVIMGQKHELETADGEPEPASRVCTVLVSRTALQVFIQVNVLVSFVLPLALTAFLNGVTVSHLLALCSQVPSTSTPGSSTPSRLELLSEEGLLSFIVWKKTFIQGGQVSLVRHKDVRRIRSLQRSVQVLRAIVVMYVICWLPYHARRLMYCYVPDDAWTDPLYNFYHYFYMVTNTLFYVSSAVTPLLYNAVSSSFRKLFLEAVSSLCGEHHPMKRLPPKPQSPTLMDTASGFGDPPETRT

NTR-1 = NTR-1 (Homo sapiens, UniProt P30989); experiment: as above
NTR-1, sequence (P30989 whole entry, species assumed): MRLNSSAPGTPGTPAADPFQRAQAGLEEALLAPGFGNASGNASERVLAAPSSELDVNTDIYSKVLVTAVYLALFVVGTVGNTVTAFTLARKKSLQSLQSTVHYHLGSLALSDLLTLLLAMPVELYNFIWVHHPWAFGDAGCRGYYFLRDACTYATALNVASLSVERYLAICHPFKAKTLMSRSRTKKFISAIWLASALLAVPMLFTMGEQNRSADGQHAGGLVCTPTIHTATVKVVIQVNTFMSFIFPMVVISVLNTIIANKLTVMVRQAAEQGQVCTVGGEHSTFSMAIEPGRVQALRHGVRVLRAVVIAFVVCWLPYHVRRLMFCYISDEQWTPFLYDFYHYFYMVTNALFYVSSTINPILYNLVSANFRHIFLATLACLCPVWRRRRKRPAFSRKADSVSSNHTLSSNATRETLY

rats [1] = experiment: Clinical observation after high IV or PO dose; assay type: in vivo, rat
Method: During the 2 and 24 hour post-dosing clinical observation periods, measurements of core body temperatures were taken.

[2] = Pharmacokinetics of ABS201 in blood/plasma (LC/MS/MS); conditions: SD, rat, in vivo, iv, 100 mg/kg
From the text: (§1) At selected time points, blood was removed or brain harvested and the concentration of the peptide analog determined using LC/MS/MS.
(§2) These samples were then used for the determination of plasma and brain drug levels by LC/MS/MS for estimating BBB penetration and pharmacokinetic parameters.

[3] = Brain distribution of ABS201 (LC/MS/MS)
From the text: as §1, §2

[4] = Pharmacokinetics of ABS212 in plasma (LC/MS/MS); assay type: in vivo, rat
From the text: These samples were used for the determination of plasma parent drug concentrations by LC/MS/MS for estimating pharmacokinetic parameters and oral bioavailability.

rats [5] = experiment: Catalepsy, horizontal bar test; conditions: IP 1 mg/kg, cut-off 30 sec
Method: (§3) Cataleptic Analysis. […] To circumvent these potential confounding factors, tests are performed on an animal only once in a quiet, controlled environment.
(§4) Catalepsy Assessment. […] Rats were given an IP injection of peptide (5 mg/Kg), saline, or haloperidol (1 mg/kg). After 3 hours, catalepsy was measured using the horizontal bar test. Briefly, the front paws were placed directly on a horizontal bar 5 mm in diameter placed 7.5 cm above the cage floor. The rat was held in this position for 3 sec and then released. The time from release until the paws return to the cage floor was measured and recorded. A cut-off time of 30 sec was observed; this indicated a fully cataleptic animal as cataleptic animals are frozen to the bar. […] Measures were repeated every 30 min for 4 hr. Data are means±SEM (p<0.01).

rats [6] = experiment: Formalin assay; assay type: in vivo, rat; conditions: ABS212 10 mg/kg, Morphine 5 mg/kg
Method: Formalin Assay. […] Animals were scored every minute on the following scale: 0=forepaw flat on floor, 1=forepaw just touching floor, 2=forepaw held up off of floor, and 3=forepaw licked or bitten. […] The animals were immediately be placed into the observation cages, and their behavior recorded over the following 30 minutes. After each experiment, rats were euthanized with CO2 followed by cervical dislocation. An average Pain Rating over time versus the baseline and formalin-only controls for each peptide tested were plotted, and statistical analysis were performed using a one-way analysis of variance (ANOVA). Differences were considered statistically significant at the 5% confidence interval. N=6 or greater for all experiments.

rats [7] = experiment: Tail flick assay; assay type: in vivo, rat; conditions: ABS212 10 mg/kg, Morphine 5 mg/kg
Method: The Tail Flick Assay. Each of 6 rats per experiment were placed in a Plexiglas restraint box. A standard laboratory hot water bath was maintained at 49° C. The distal 3 cm of the rat's tail was submerged into the water, and the time from insertion to tail flick or removal of tail from the water was recorded. Animals are removed immediate4ly at the cutoff latency of 10 seconds. MPEs were calculated, with a MPE of 100% corresponding to the rat's tail remaining in the water bath for 10 seconds. This was repeated 3 times. The tail was dried and allowed to rest for 20 seconds between trials. The rat was then given the appropriate amount of peptide and the experiment repeated at 30 and 60 minutes. Treatment conditions were distributed over the study in a counterbalanced design to control for such factors as calendar period and order of dosing. N=6 or greater for all experiments.

rats [8] = experiment: d-Amphetamine induced hyperlocomotion / locomotor activity chambers; assay type: in vivo, rat; conditions: rat, in vivo
From the text: Sound- and light-attenuated locomotor cages are used to measure the ability of potential candidates to decrease d-amphetamine-induced hyperactivity.
d-Amphetamine induced hyperlocomotion. Experimentally I male Sprague-Dawley rats were housed as described above. Rats were handled for three days prior to testing to minimize experimenter induced hyperlocomotion on test day. For experiments, sound- and light-attenuated automated photocell beam activity chambers (AccuScan Instruments, Inc., Columbus, Ohio) were used to measure locomotion. Cages were connected to a VersaMax Analyzer (AccuScan) in conjunction with an IBM computer using VersaMax 1.80-0146 software (AccuScan) to record vertical and horizontal activity. Total activity values recorded were the sum of vertical and horizontal activity. […]
Rats were placed in the activity chambers for 30 minutes to habituate and establish baseline activity levels. Then, rats were removed and given an IP or oral dose of peptide (N=7) or saline (N=8) and returned to the chamber to establish the peptide's effect on spontaneous activity levels. About 30 minutes after administration, rats were removed and given an IP injection of d-amphetamine (1 mg/kg) or vehicle and returned to the chamber for a further 1 hr to assess the effect of the peptide on induced hyperlocomotion.
Chronic Testing Protocols.
Separate two-factor ANOVAs for DOSE X TIME were performed for each different time-phase of the assay. Phases for the IP dosing and oral dosing experiments consisted of habituation (time points 10-60), drug (time points 70-120), and amphetamine (time points 130-240).

rats [9] = conditions: rat, in vivo
Method: as §3, §4

rats [10] = experiment: Induced hypothermia (rectal temperature) after IP or oral administration; conditions: IP 5 mg/kg, Table 5
From the text: Hypothermia as a Preliminary Screen of CNS Activity.
Animal Restraint. Rats were restrained in Plas-Labs® plastic cages fitted with wooden dowels to restrict movement. Rectal temperature probes (Physitemp®, RET-2, Clifton, N.J.), lubricated with mineral oil, were inserted into the rectum of each animal. Probes were connected to a microprobe thermometer (Physitemp®, BAT-12) in conjunction with a thermocouple selector (Physitemp®, SWT-5). Rats were allowed to acclimate to the cages for 1 hr prior to IP injection.
Peptide Preparation. […] For oral administration, the test article was administered directly into the animals' stomach by gavaging. Controls involved the administration of 0.9% NaCl. Thus, peptides were dissolved in saline, and following the equilibration period, rats were given an IP injection of peptide (5 mg/kg) or saline (1 mL/kg). […]
Hypothermia. […] For each rat, a thermistor probe was placed 4.5 cm into the rectum; baseline temperatures were recorded for 1 hr to allow habituation to the cages prior to injection of compound. […]
The former activity is most easily monitored by measuring the extent of induced hypothermia (core body temperature loss), which is a measure of NTR-1 binding and agonism and thus antipsychotic activity. Hypothermia is followed routinely over time through insertion of a thermometer probe hooked up to a digital readout box into the anus of the rats.

rats [11] = experiment: Hotplate assay; assay type: in vivo, rat; conditions: for MPE (I.P.) / Tmax (I.P.) of % MPE / MPE (oral) / Tmax (Oral) of % MPE: hotplate; for MPE (I.P.) / Tmax (I.P.) of % MPE: IP at 10 mg/kg; for MPE (oral) / Tmax (Oral) of % MPE: orally at 20 mg/kg
From the text: Animals. Experimentally naïve male Sprague-Dawley rats from Charles River Laboratories, Raleigh, N.C. (230-260 g) or Harlan, Prattville Ala. (240-280 g), were maintained 4 per cage in animal quarters on a regular light/dark cycle (lights on 0600-1800) with ad libitum food and water for approximately 1 week before the experiment. The range of body weights on the 2 days of testing was 230-260 grams. The experiment was done on one day, with animals allowed to recover for three days before experiments are repeated.
Peptide Preparation. Test articles are prepared at the desired concentration in saline for either IP injection or gavage administration with N=6 for each dose and vehicle. Morphine (5 mg/kg) is used as a control for certain protocols. […] Apomorphine HCl (Sigma-Aldrich, St. Louis, Mo.) was dissolved in distilled water at a concentration of 5 mg/mL within 40 minutes of administration for injection at 1 mL/kg S.C. to give a dose of 5 mg/kg. When complete ED50s are determined, dosing range of the peptide will be 10, 3, 1, 0.3, 0.1 of the estimated ED50, covering two log orders of range.
The Hotplate Assay. The hotplate assay, a standard rat model for […] pain (see Le Bars et al., Pharmacol. Rev. 53: 597-652 (2001) and Chapman et al., Pain 22:1-31 (2002)), was performed as follows. A hotplate maintained at 52° C. to 53° C. was enclosed on four sides in a plexiglass chamber that extended 6 in. above the plate. Animals were placed on the plate, and the latency between the time a rat was placed on the surface and when it lifts or licks a back paw (indicative of pain sensation) was determined. Animals are removed immediately at the cutoff latency of 30 seconds. Assays are scored as the percent of maximal possible effect (% MPE) defined as 100%, which corresponds to the rats remaining on the hotplate for 30 seconds without responding. Thus, % MPE are calculated using the following equation: % MPE=[(post-drug latency−pre-drug latency)/(cut-off pre-drug latency)]×100%. N=6 or greater for all experiments.
Tmax indicates the time after dosing in which a maximum response was observed.

`CC(C)C[C@H](NC(=O)[C@@H](NC(=O)[C@H](Cc1ccc(O)cc1)NC(=O)[C@@H]1CCCN1C(=O)[C@H](CCCNC(=N)N)NC(=O)[C@H](CCCCCN)N=[N+]=[N-])C(C)(C)C)C(=O)O` [ABS13, N3-L-homolysine-Arg-Pro-Tyr-tertLeu-Leu-COOH] (X5-RPY[Tle]L-OH) gave an IC50 (NTR-2) of 11.1 ± 0.1 nM and an IC50 (NTR-1) of 5.7 ± 0.37 nM.

For `CC(C)C[C@H](NC(=O)[C@@H](NC(=O)[C@H](Cc1ccc(O)cc1)NC(=O)[C@@H]1CCCN1C(=O)[C@H](CCCNC(=N)N)NC(=O)[C@@H](C)CCCCCN)C(C)(C)C)C(=O)O` [ABS201 HCl] (X1-RPY[Tle]L-OH), the “clinical observation 24 hour post-dosing” value (rats [1]; IV 50 mg/kg) was “grossly normal; hypothermia was absent”, the “clinical observation immediately after dosing” value (rats [1]; IV 50 mg/kg) was “obviously sedated” and the “clinical observation two hour post-dosing” value (rats [1]; IV 50 mg/kg) was “marked hypothermia was present”. The clinical observation (rats [1]; PO 250 mg/kg) was “grossly normal at all time points”.

For `CC(C)C[C@H](NC(=O)[C@@H](NC(=O)[C@H](Cc1ccc(O)cc1)NC(=O)[C@@H]1CCCN1C(=O)[C@H](CCCNC(=N)N)NC(=O)[C@@H](C)CCCCCN)C(C)(C)C)C(=O)O` [ABS201.2HCl] (X1-RPY[Tle]L-OH), the Vd [2] was 16.1 L/kg, the clearance [2] was 380 mL/min/kg and the AUC0-t in brain ([3]; 15 min intravenous infusion 100 mg/kg) was 60.96 ng·h/g. It also gave a Cmax ([3]; SD, rat, brain, iv, 100 mg/kg) of 32.9 ng/g and a half-life ([3]; SD, rat, brain, iv, 100 mg/kg) of 291 min.

For `CC(C)C[C@H](NC(=O)[C@@H](NC(=O)[C@H](Cc1ccc(O)cc1)NC(=O)[C@@H]1CCCN1C(=O)[C@H](CCCNC(=N)N)NC(=O)[C@@H](C)CCC[N+](C)(C)C)C(C)(C)C)C(=O)O` [ABS-212.2HCL] (X2-RPY[Tle]L-OH), the “clearance as % of rat hepatic blood flow” value ([4]; IV bolus 1 mg/kg) was 32.33%, the “clearance as % of rat hepatic blood flow” value ([4]; IV bolus 5 mg/kg) was 12.08% and the “clearance as % of rat hepatic blood flow” value ([4]; IV bolus […]) was 12.08%.

For `O=C(CCCN1CCC(O)(c2ccc(Cl)cc2)CC1)c1ccc(F)cc1` [Haloperidol, reference compound], the duration of catalepsy (rats [5]) was “greater than 30 sec”.

For `CN1CC[C@]23c4c5ccc(O)c4O[C@H]2[C@@H](O)C=C[C@H]3[C@H]1C5` [Morphine, reference compound], the “analgesic effect over the time course” value (rats [6]) was “loses activity after 30 minutes”, the “MPE (0 min)” value (rats [7]) was 0.03 +/− 0.05 and the “MPE (30 min)” value (rats [7]) was 63.7 +/− 41.9. The “MPE (60 min)” value (rats [7]) was 67.5 +/− 25.8.

With `CC[C@H](C)[C@H](NC(=O)[C@H](Cc1ccc(O)cc1)NC(=O)[C@@H]1CCCN1C(=O)[C@H](CCCNC(=N)N)NC(=O)[C@@H](N)CCCNC(=N)N)C(=O)N[C@@H](CC(C)C)C(=O)O` [NT(8-13), NH2-Arg-Arg-Pro-Tyr-Ile-Leu-COOH, reference compound] the “Hyperlocomotion Inhibition (routes of administration)” value (rats [8]) was “CNS administration”, the “Inhibits locomotor activity (routes of administration)” value (rats [8]) was “CNS administration” and the catalepsy (rats [9]) was “No”. For the same compound, the “tmax (min) Time to maximal temperature decrease” value (rats [10]) was 90 min and the “Δ in BT (° C.) Decrease in body temperature measured at tmax” value (rats [10]) was −0.45 ± 0.17^d ° C.

With Arg-Arg-Pro-Tyr-t-Leu-Leu [ABS213] the “MPE (I.P.)” value (rats [11]) was 48% and the “Tmax (I.P.) of % MPE” value (rats [11]) was 30.

With Arg-Arg-Pro-Tyr-tLeu-Leu [ABS237] the “MPE (I.P.)” value (rats [11]) was 50% and the “Tmax (I.P.) of % MPE” value (rats [11]) was 30.

In the case of Boc-Arg-Pro-Tyr-t-Leu-Leu [ABS700], the “MPE (I.P.)” value (rats [11]) is reported as 51% and the “Tmax (I.P.) of % MPE” value (rats [11]) is reported as 90.

In the case of KRPY[Tle]L [ABS229], the “MPE (I.P.)” value (rats [11]) is reported as 48% and the “Tmax (I.P.) of % MPE” value (rats [11]) is reported as 60.

For Lys-Arg-Pro-Tyr-t-Leu-Leu [ABS205], the “analgesic effect relative to ABS212” value (rats [11]; gavage 20 mg/kg) was “as much or more active than ABS212”, the “MPE (I.P.)” value (rats [11]) was 86% and the “Tmax (I.P.) of % MPE” value (rats [11]) was 15-30. The “MPE (oral)” value (rats [11]) was 66% and the “Tmax (Oral) of % MPE” value (rats [11]) was 30.

In the case of Orn-Arg-Pro-Tyr-t-Leu-Leu [ABS209], the “MPE (I.P.)” value (rats [11]) is reported as 89% and the “Tmax (I.P.) of % MPE” value (rats [11]) is reported as 60.

In the case of [Orn]RPY[Tle]L [ABS233], the “MPE (I.P.)” value (rats [11]) is reported as 51% and the “Tmax (I.P.) of % MPE” value (rats [11]) is reported as 45.

For [hLys]RPY[Tle]L [ABS225], the “MPE (I.P.)” value (rats [11]) was 100%, the “Tmax (I.P.) of % MPE” value (rats [11]) was 15-45 and the “MPE (oral)” value (rats [11]) was 38%. For the same compound, the “Tmax (Oral) of % MPE” value (rats [11]) was 30.
